Assays:
[1] = tested on: Long-Evans rat pups (term neonatal HIE model); experiment: Endothelial cells count (lectin staining) at P30; assay type: in vivo; conditions: HI, not significant
Protocol: Using the third slide prepared for each animal, an immunohistochemistry was used to assess the endothelial cells count. Sections were labeled with lectin (biotinylated isolectin B4) (Sigma-Aldrich: L2140, St-Louis, Mo., USA) (dilution 20 μg/mL in 0.1M tris-buffered saline [pH 7.4] and 0.5% Triton X-100, incubation time 2 hours at room temperature) (Springer M L et al., 2010). To detect lectin binding, the sections were incubated with streptavidin Alexa Fluor® 350 conjugate (Molecular Probes®, Life Technologies: S11249, Carlsbad, Calif., USA) dilution 1:300 in tris-buffered saline, incubation time 2 hours at room temperature (Ndode-Ekane X E et al., 2010). Then, these sections were rinsed with tris-buffered saline and cover slipped with Vectashield Mounting media containing 4,6-diamidino-2-phenylindole (DAPI) (Vector Laboratories: H1200, Burlingame, Calif., USA) to visualize cell nuclei (Ndode-Ekane X E et al., 2010; Hallene K L et al., 2006). The endothelial cells count was assessed as per previously described methods (Hallene K L et al., 2006, Iwai M et al., 2007; Noguchi T et al., 2008; Rigau V et al., 2007; Wintermark P et al., 2013). Cells co-labeled with lectin and DAPI were identified as endothelial cells (Springer M L et al., 2010; Hallene K L et al., 2006). To estimate the density of microvessels, single immunoreactive endothelial cells were counted as individual microvessels; endothelial staining in large vessels with tunica media were disregarded in the microvessel counts (Hallene K L et al., 2006, Iwai M et al., 2007; Noguchi T et al., 2008; Rigau V et al., 2007; Wintermark P et al., 2013; Shaikh H et al., 2015). […] One investigator took pictures of the respective fields of view at 10× magnification.

[2] = Body weight and animal deaths in Vannucci rat model of term neonatal HIE
Protocol: (§1) A well-established Vannucci rat model of term neonatal HIE, which combined a left common carotid artery ligation and a 2 hour exposure to hypoxia (8% oxygen) in 10-day-old (P10) rat pups, was used for the experiments, since this model is generally recognized to mimic the brain injuries observed in human term asphyxiated newborns. Briefly, the 10-day-old male Long-Evans rat pups were weighed and then deeply anesthetized with an intraperitoneal injection of fentanyl (0.2 mg/kg) and midazolam (1 mg/kg) to the point of unresponsiveness to noxious stimulation. Lidocaine-prilocaine cream (EMLA®; AstraZeneca Inc.) was applied to the ventral neck skin 30 minutes before surgery. The skin was cleaned with 2% chlorhexidine solution followed by 70% alcohol. A vertical incision was made along the ventral surface of the neck. The left common carotid artery was located, isolated, and then ligated with a single tight suture. Following the unilateral ligation, the skin incision was closed with an adhesive (n-butyl cyanoacrylate; 3 M VetBond Tissue Adhesive®; 3 M USA). The anesthesia was reversed with an intraperitoneal injection of naloxone (0.1 mg/kg) and flumazenil (1 mg/kg). […] For each rat pup, anesthesia time and surgical time were kept to a minimal time of less than 5-10 minutes. The pups were allowed to recover for approximately 1.5 h after surgery and then were placed in a sealed hypoxia chamber (Plastic Concepts, North Billerica, USA). The sealed chamber was infused with nitrogen until a level of 8% oxygen was reached, which was maintained for 2 h (oxygen analyzer model 600, Engineered Systems & Designs, Newark, Del.). The pups were allowed to recover for 30 minutes and then were returned to their cages with the mother. The rats undergoing the whole procedure were considered as the hypoxic-ischemic (HI) group (n=10-12 animals/groups). Sham operated rat pups (identical procedure as the HI group, but not the ligation and hypoxia) served as the control group (n=10-12 animals/groups). The sample size of the current study was a sample size of convenience, subject to restrictions imposed by the institutional ethics committee that reviewed it, and based on the principles of the 3Rs (replacement, reduction, and refinement). Sham rat pups received the same sedation as HI rat pups permitting to control for the effect of sedation on the brain. Normal body temperature of both sham and HI rat pups, while they were separated from the mother, was maintained during the whole procedure (i.e., surgery±hypoxia) using warming blankets (Cincinnati Sub-Zero, Cincinnati, USA).

[3] = oral sildenafil; known; cited from earlier work
PDE6 = conditions: known; cited from earlier work
[4] = tested on: Long-Evans rat pups (term neonatal HIE model); experiment: Brain structure, hematoxylin and eosin coronal sections at P30; conditions: HI
Protocol: as §1, with “The sample size of the current study was a sample size of convenience, subject to restrictions imposed by the institutional ethics committee that reviewed it, and based on the principles of the 3Rs (replacement, reduction, and refinement). Sham rat pups received the same sedation as HI rat pups permitting to control for the effect of sedation on the brain. Normal body temperature of both sham and HI rat pups, while they were separated from the mother, was maintained during the whole procedure (i.e., surgery±hypoxia) using warming blankets (Cincinnati Sub-Zero, Cincinnati, USA).” left out

[5] = tested on: Long-Evans rat pups (neonatal HI); experiment: Retinal immunohistochemistry after neonatal HI; assay type: in vivo; conditions: sildenafil 2, 10 or 50 mg/kg 7 days, P30
From the text: Neonatal hypoxia-ischemia (HI) was induced in male Long-Evans rat pups at postnatal day 10 (P10) by left common carotid ligation followed by 2-hour exposure to 8% oxygen. […] At P30, rats were sacrificed and their eyes were extracted.

CCCc1nn(C)c2c(=O)[nH]c(-c3cc(S(=O)(=O)N4CCN(C)CC4)ccc3OCC)nc12 [sildenafil]
endothelial cells number, median (IQR) ([1]; sildenafil 2 mg/kg): 230 (158; 273) endothelial cells/mm^2 | endothelial cells number, median (IQR) ([1]; sildenafil 10 mg/kg (first mention, medium-dose)): 196 (157; 225) endothelial cells/mm^2 | endothelial cells number, median (IQR) ([1]; sildenafil 10 mg/kg as printed (second mention, third of low/medium/high)): 193 (151; 217) endothelial cells/mm^2 | incidence of animal deaths ([2]; HI group, sildenafil 2 mg/kg): 4/12 | incidence of animal deaths ([2]; HI group, sildenafil 10 mg/kg): 2/11 | incidence of animal deaths ([2]; HI group, sildenafil 50 mg/kg): 3/11 | incidence of animal deaths ([2]; sham groups): no animals died | oral bioavailability [3]: good oral bioavailability | PDE6 inhibition (PDE6): inhibits PDE6, but with a reduced efficiency | total brain size, median (IQR) ([4]; high-dose sildenafil, not different from sham vehicle): 93.05 (91.53; 93.95) | total brain size, median (IQR) ([4]; low-dose sildenafil, p<0.05 vs sham vehicle): 92.19 (81.51; 97.58) | total brain size, median (IQR) ([4]; medium-dose sildenafil, not different from sham vehicle): 94.05 (84.4; 95.0) | neuroinflammation, number of astrocytes in retina [5]: decreasing the number of astrocytes | number of retinal ganglion cells and bipolar cells [5]: restored the number of retinal ganglion cells and bipolar cells

Source: patent publication US10537575B2, “Phosphodiesterase inhibitors to repair brain and/or retinal injury in human newborns” (priority 2016, dated 2020)
